These results are taken from patent US12655104B2, “Anticancer compounds selective for ER-positive cancers” (THE BOARD OF TRUSTEES OF THE UNIVERSITY OF ILLINOIS, priority 2020, dated 2026).

Read-outs that look alike come from different tables or passages of the source.

What all share (format): cell-based
For one assay, the system named is MCF-7 cells. The assay can be described thus: Alamar blue fluorescence viability (IC50), MCF-7. The method, then:
(§1) Cancer Cell Lines: Culturing Conditions and Validation. All cell lines were cultured at 37° C. with 5% CO2. All ERα-positive cell lines were grown in media lacking phenol red. MCF-7 were grown in EMEM with 10% FBS and 1% penicillin-streptomycin (P/S). T47D were cultured in MEM with 10% FBS and 1% P/S. TYS and TDG cells were grown in MEM supplemented with 10% CD-FBS and 1% P/S. HCT-116 and MDA-MB-231 cells were cultured in RPMI-1640 supplemented with 10% FBS and 1% P/S. MDA-MB-436 cells were cultured in DMEM supplemented with 10% FBS and 1% P/S. HT-29 were cultured in McCoy's media supplemented with 10% FBS and 1% P/S. All cell lines were used directly from ATCC stocks and/or have been further authenticated using PowerPlex16HS Assay (Promega) as described previously.^54 In short, >1 million cells were harvested and lysed using the cell lysis buffer (50 mM Tris, 50 mM EDTA, 25 mM sucrose, 100 mM NaCl, 1% SDS, pH 8). DNA extraction and short tandem repeats (STRs) profiling for each cell line were carried out at the University of Arizona Genetics Core (UAGC). Autosomal STR profiles were compared to reference databases such as ATCC, DSMZ, and JCRB.
(§2) Alamar Blue Fluorescence for Anticancer Activity (IC50). 2,000-15,000 cells per well were seeded a 96-well plate. Cells were allowed to adhere before DMSO stock solutions of test compounds were added to each well with a final concentration of DMSO in each well=1%; final volume: 100 μL. At the end of the desired incubation time (e.g., 24 or 72 hours), media in each well was aspirated and new fresh media (no compound, 100 μL) was added. Alamar blue solution (4 mg resazurin per 40 mL PBS) was then added (10 μL). After 2-6 hours incubation, each well's fluorescence (λexcit.=555 nm, λemission.=585 nm) was measured using a SpectraMax M3 plate reader (Molecular Devices). Percent dead was determined by comparison to a 100% dead control: 100 μM raptinal treated cells. Dose dependent curves and IC50 were calculated using Origin Pro V10.

Another assay deals with HCT-116. Description: Alamar blue fluorescence viability (IC50), HCT-116. The following applies: for Fold Change: Average Fold Change between 24/72 hr IC50 values for MCF-7 and HCT-116; for IC50: HCT-116, ERα negative. As for the experimental part:
as §1, §2
(In general: Alamar Blue is a resazurin reagent that responds to reducing activity.)

The next assay concerns HT-29. The assay can be described thus: Alamar blue fluorescence viability (IC50), HT-29. The settings on record: for Fold Change: Average Fold Change between 24/72 hr IC50 values for MCF-7 and HT-29; for IC50: HT-29, ERα negative. The method, then: as §1, §2
The next assay deals with MDA-MB-231. The assay can be described thus: Alamar blue fluorescence viability (IC50), MDA-MB-231. The following applies: for Fold Change: Average Fold Change between 24/72 hr IC50 values for MCF-7 and MDA-MB-231; for IC50: MDA-MB-231, ERα negative. The method, then:
as §1, §2

Where [1] appears, read: Homo sapiens, MCF7, MCF-7 cells, 24 hours, Alamar blue, mean ± s.e.m., read-out: IC50.
Where [2] appears, read: MCF-7, ERα positive, 72 hr, read-out: IC50 72 hr.
Where [3] appears, read: MCF-7, ERα positive, 24 hr, read-out: IC50 24 hr.

In the case of `O=C1Nc2c(C(F)(F)F)cccc2C1(c1ccc(OC(F)(F)F)cc1)c1ccc(OC(F)(F)F)cc1` [Compound 9, 3,3-bis(4-(trifluoromethoxy)phenyl)-7-(trifluoromethyl)indolin-2-one], the IC50 – broadly, the concentration that gives 50% inhibition – with MCF-7 cells (setting [1]) was above 1 µM. In addition, in the assay with MCF-7 cells (MCF-7 cells), the “anticancer activity against MCF-7 cells (in words)” value (“anticancer activity” below) is reported as “lack of activity”.
Regarding `O=C1Nc2c(C(F)(F)F)cccc2C1(c1ccc(O)cc1)N1CC(F)(F)C1` (centres unmarked), the IC50 in the assay with MCF-7 cells (setting [2]) was 0.117 ± 0.003 µM.
Regarding `O=C1Nc2c(C(F)(F)F)cccc2C1(c1ccc(O)cc1)N1CCC(OC(F)(F)F)CC1` (centres unmarked) [Compound 21, 3-(4-hydroxyphenyl)-3-(4-(trifluoromethoxy)piperidin-1-yl)-7-(trifluoromethyl)indolin-2-one], the IC50 with MCF-7 cells (setting [1]) was found to be 0.135 µM.
Consider `O=C1Nc2c(C(F)(F)F)cccc2C1(c1ccc(OC(F)(F)F)cc1)c1c(F)cc(O)cc1F` (centres unmarked) [Compound 8, 3-(2,6-difluoro-4-hydroxyphenyl)-3-(4-(trifluoromethoxy)phenyl)-7-(trifluoromethyl)indolin-2-one], for which the IC50 in the assay on MCF-7 cells (setting [1]) was 0.549 µM.
As for `O=C1Nc2c(C(F)(F)F)cccc2C1(c1ccc(O)cc1)N1CCC(F)(F)C1` (centres unmarked), the “Fold Change” value is 909 in the assay on HCT-116, 1364 in the assay with HT-29 and 1455 in the assay on MDA-MB-231. Besides, the IC50 in the assay with HCT-116 (24 hr, read-out: IC50 24 hr) was 45 ± 5 µM; in the assay with HCT-116 (72 hr, read-out: IC50 72 hr), 20 ± 6 µM; with HT-29 (24 hr, read-out: IC50 24 hr), 35 ± 6 µM; in the assay on HT-29 (72 hr, read-out: IC50 72 hr) it was 30 ± 5 µM; in the assay on MDA-MB-231 (24 hr, read-out: IC50 24 hr) it was 51 ± 5 µM; in the assay with MDA-MB-231 (72 hr, read-out: IC50 72 hr) it was 32 ± 3 µM. In addition, the IC50 stood at 0.017 ± 0.001 µM in the assay with MCF-7 cells (setting [3]) and 0.022 ± 0.001 µM in the assay on MCF-7 cells (setting [2]).
Regarding `CC(C)c1cc(C2(c3ccc(OC(F)(F)F)cc3)C(=O)Nc3c(C(F)(F)F)cccc32)cc(C(C)C)c1O` (centres unmarked) [Compound 13, 3-(4-hydroxy-3,5-diisopropylphenyl)-3-(4-(trifluoromethoxy)phenyl)-7-(trifluoromethyl)indolin-2-one], the concentration for half-maximal inhibition (IC50) with MCF-7 cells (setting [1]) was above 1 µM.
With `O=C1Nc2c(C(F)(F)F)cccc2C1(c1ccc(O)cc1)N1CC(F)(F)C(F)(F)C1` (centres unmarked) [drawing 37], the IC50 with MCF-7 cells (setting [3]) and in the assay on MCF-7 cells (setting [2]) was above 1 µM each time.
In the case of `O=C1Nc2c(C(F)(F)F)cccc2C1(c1ccc(O)cc1)N1CCC(F)(F)CC1` (racemic) [Compound 2, 3-(4,4-difluoropiperidin-1-yl)-3-(4-hydroxyphenyl)-7-(trifluoromethyl)indolin-2-one], in the assay with MCF-7 cells (setting [1]), the IC50 was 0.035 µM.
On to `O=C1Nc2c(C(F)(F)F)cccc2C1(c1ccc(O)cc1)N1CCCCCC1` (centres unmarked) [Compound 19, 3-(azepan-1-yl)-3-(4-hydroxyphenyl)-7-(trifluoromethyl)indolin-2-one], for which the IC50 with MCF-7 cells (setting [1]) is above 1 µM.
`CC1CN(C2(c3ccc(O)cc3)C(=O)Nc3c(C(F)(F)F)cccc32)CCC1(F)F` (centres unmarked) [Compound 17, 3-(4,4-difluoro-3-methylpiperidin-1-yl)-3-(4-hydroxyphenyl)-7-(trifluoromethyl)indolin-2-one]: the IC50 in the assay on MCF-7 cells (setting [1]) turned out to be 0.07 µM.
Regarding `O=C1Nc2c(C(F)(F)F)cccc2C1(c1ccc(OC(F)(F)F)cc1)c1ccc(O)cc1F` (centres unmarked) [Compound 7, 3-(2-fluoro-4-hydroxyphenyl)-3-(4-(trifluoromethoxy)phenyl)-7-(trifluoromethyl)indolin-2-one], the IC50 with MCF-7 cells (setting [1]) came to 0.177 µM.
`O=C1Nc2c(C(F)(F)F)cccc2[C@@]1(c1ccc(O)cc1)N1CCC(F)CC1` [(R)-22, (R)-3-(4-fluoropiperidin-1-yl)-3-(4-hydroxyphenyl)-7-(trifluoromethyl)indolin-2-one]: the “anticancer activity” value in the assay on MCF-7 cells (MCF-7 cells) is “lack of potent activity”.
Take `O=C1Nc2c(C(F)(F)F)cccc2C1(c1ccc(O)cc1)N1CCOCC1` (centres unmarked) [Compound 18, 3-(4-hydroxyphenyl)-3-morpholino-7-(trifluoromethyl)indolin-2-one]: the IC50 with MCF-7 cells (setting [1]) was above 1 µM.
On the same count and under the same terms, as for `O=C1Nc2c(C(F)(F)F)cccc2C1(c1ccc(OC(F)(F)F)cc1)c1ccc(O)c(F)c1` (centres unmarked) [Compound 5, 3-(3-fluoro-4-hydroxyphenyl)-3-(4-(trifluoromethoxy)phenyl)-7-(trifluoromethyl)indolin-2-one], the figure is 0.033 µM.
As to `O=C1Nc2c(C(F)(F)F)cccc2[C@]1(c1ccc(O)cc1)N1CC(F)(F)C(F)(F)C1` [(S)-26, (S)-3-(4-hydroxyphenyl)-3-(3,3,4,4-tetrafluoropyrrolidin-1-yl)-7-(trifluoromethyl) indolin-2-one], the “anticancer activity” value in the assay with MCF-7 cells (MCF-7 cells) was “inactive”.
On to `O=C1Nc2c(C(F)(F)F)cccc2C1(c1ccc(OC(F)(F)F)cc1)c1ccc(O)c(O)c1` (centres unmarked) [Compound 10, 3-(3,4-dihydroxyphenyl)-3-(4-(trifluoromethoxy)phenyl)-7-(trifluoromethyl)indolin-2-one], for which the IC50 with MCF-7 cells (setting [1]) amounted to 0.049 µM.
For the molecule `Cc1cc(C2(c3ccc(OC(F)(F)F)cc3)C(=O)Nc3c(C(F)(F)F)cccc32)ccc1O` (centres unmarked) [Compound 11, 3-(4-hydroxy-3-methylphenyl)-3-(4-(trifluoromethoxy)phenyl)-7-(trifluoromethyl)indolin-2-one], in the assay with MCF-7 cells (setting [1]), the IC50 is above 1 µM.
On the same count and under the same terms, next, `Cc1cc(C2(c3ccc(OC(F)(F)F)cc3)C(=O)Nc3c(C(F)(F)F)cccc32)cc(C)c1O` (centres unmarked) [Compound 12, 3-(4-hydroxy-3,5-dimethylphenyl)-3-(4-(trifluoromethoxy)phenyl)-7-(trifluoromethyl)indolin-2-one]: above 1 µM.
`O=C1Nc2c(C(F)(F)F)cccc2C1(c1ccc(O)cc1)N1CCCC(F)(F)C1` (centres unmarked): the figures for the “Fold Change” value in the assay with HCT-116, with HT-29 and in the assay with MDA-MB-231 were 636, 758 and 667, respectively. In addition, the IC50 turned out to be 38 ± 4 µM in the assay on HCT-116 (24 hr, read-out: IC50 24 hr); 21 ± 4 µM with HCT-116 (72 hr, read-out: IC50 72 hr); 29 ± 1 µM in the assay on HT-29 (24 hr, read-out: IC50 24 hr); 25 ± 3 µM with HT-29 (72 hr, read-out: IC50 72 hr); 49 ± 4 µM in the assay with MDA-MB-231 (24 hr, read-out: IC50 24 hr); 22 ± 1 µM with MDA-MB-231 (72 hr, read-out: IC50 72 hr). In addition, the IC50 was 0.039 ± 0.01 µM in the assay on MCF-7 cells (setting [3]) and 0.033 ± 0.001 µM in the assay on MCF-7 cells (setting [2]).
Regarding `O=C1Nc2c(C(F)(F)F)cccc2C1(c1ccc(O)cc1)N1CCC(O)CC1` (centres unmarked) [Compound 20, 3-(4-hydroxyphenyl)-3-(4-hydroxypiperidin-1-yl)-7-(trifluoromethyl)indolin-2-one], in the assay with MCF-7 cells (setting [1]), the IC50 was above 1 µM.
As to `O=C1Nc2c(C(F)(F)F)cccc2C1(c1ccc(OC(F)(F)F)cc1)c1cc(F)c(O)c(F)c1` (centres unmarked) [Compound 6, 3-(3,5-difluoro-4-hydroxyphenyl)-3-(4-(trifluoromethoxy)phenyl)-7-(trifluoromethyl)indolin-2-one], in the assay with MCF-7 cells (setting [1]), the IC50 is above 1 µM. In addition, the “anticancer activity” value in the assay with MCF-7 cells (MCF-7 cells) is recorded as “loss of activity”.
As to `O=C1Nc2c(C(F)(F)F)cccc2C1(c1ccc(O)cc1)N1CC(F)(F)C(F)(F)C1` (centres unmarked) [drawing 36], the entries for the “Fold Change” value in the assay on HCT-116, in the assay on HT-29 and in the assay with MDA-MB-231 were 3750, 3750 and 3500, respectively. In addition, the concentration for half-maximal inhibition (IC50) was determined as 24 ± 2 µM in the assay on HCT-116 (24 hr, read-out: IC50 24 hr); 15 ± 3 µM in the assay on HCT-116 (72 hr, read-out: IC50 72 hr); 25 ± 1 µM in the assay with HT-29 (24 hr, read-out: IC50 24 hr); 15 ± 2 µM in the assay with HT-29 (72 hr, read-out: IC50 72 hr); 22 ± 2 µM in the assay with MDA-MB-231 (24 hr, read-out: IC50 24 hr); 14 ± 1 µM with MDA-MB-231 (72 hr, read-out: IC50 72 hr). Further, the IC50 was found to be 0.005 ± 0.001 µM with MCF-7 cells (setting [3]) and 0.004 ± 0.001 µM in the assay with MCF-7 cells (setting [2]).
For the molecule `O=C1Nc2c(C(F)(F)F)cccc2C1(c1ccc(O)cc1)N1CCCCC1` (centres unmarked) [Compound 16, 3-(4-hydroxyphenyl)-3-(piperidin-1-yl)-7-(trifluoromethyl)indolin-2-one], in the assay on MCF-7 cells (setting [1]), the IC50 was above 1 µM.
